Reference: PMC6522510 (Nature Communications, 2019)
Like-named read-outs stand apart in the source and are kept apart here.

What was measured:
CHRF288-11 [1] = assay: Secondary dose-response HTS, Cell Titer Glo; type: cell-based, human; conditions: Homo sapiens, HTS; secondary high-throughput screen; CHRF288-11; read-out: average effective concentration, CHRF288-11
CMS [2] = assay: Secondary dose-response HTS, Cell Titer Glo; type: cell-based, human; conditions: Homo sapiens, HTS, read-out: average effective concentration, CMS
M07e [3] = assay: Secondary dose-response HTS, Cell Titer Glo; type: cell-based, human; conditions: Homo sapiens, M-07e, secondary high-throughput screen, read-out: average effective concentration, M07e
ML2 = assay: Secondary dose-response HTS, Cell Titer Glo; type: cell-based, human; conditions: Homo sapiens; secondary high-throughput screen; ML-2; read-out: average effective concentration, ML-2
U937 [4] = assay: Secondary dose-response HTS, Cell Titer Glo; type: cell-based, human; conditions: Homo sapiens, U-937; secondary high-throughput screen; U937; read-out: average effective concentration, U937
MOLM-13 [5] = assay: cells; design: species or system AML cell lines (8); Secondary HTS, 10-point dose-response in triplicate, Cell Titer Glo viability, four-parameter fit EC50; conditions: Homo sapiens, MOLM-13, 72 h, read-out: MOLM-13
MV4-11 [6] = assay: cells; design: species or system AML cell lines (8); Secondary HTS, 10-point dose-response in triplicate, Cell Titer Glo viability, four-parameter fit EC50; conditions: Homo sapiens, MV4-11, 72 h, read-out: MV4-11
CMK [7] = assay: cells; design: species or system AML cell lines (8); Secondary HTS, 10-point dose-response in triplicate, Cell Titer Glo viability, four-parameter fit EC50; conditions: Homo sapiens, CMK, 72 h, read-out: CMK
CMK [8] = assay: Secondary dose-response HTS, Cell Titer Glo; type: cell-based, human; conditions: Homo sapiens, CMK, read-out: average effective concentration, CMK
CHRF288-11 [9] = assay: cells; design: species or system AML cell lines (8); Secondary HTS, 10-point dose-response in triplicate, Cell Titer Glo viability, four-parameter fit EC50; conditions: 72 h, read-out: CHRF288-11
U937 [10] = assay: cells; design: species or system AML cell lines (8); Secondary HTS, 10-point dose-response in triplicate, Cell Titer Glo viability, four-parameter fit EC50; conditions: Homo sapiens, U-937, 72 h, read-out: U937
CHRF288-11 [11] = test system: CHRF288-11; design: species or system AML cell lines (8); Primary HTS, single concentration about 10 uM, Cell Titer Glo viability; log10 luminescence, per cent inhibition relative to cycloheximide control; conditions: 72 h, relative to cycloheximide control, log10 luminescence; inhibitor
CMK [12] = test system: CMK; design: species or system AML cell lines (8); Primary HTS, single concentration about 10 uM, Cell Titer Glo viability; log10 luminescence, per cent inhibition relative to cycloheximide control; conditions: 72 h, relative to cycloheximide control, log10 luminescence; inhibitor
CMS [13] = test system: CMS; design: species or system AML cell lines (8); Primary HTS, single concentration about 10 uM, Cell Titer Glo viability; log10 luminescence, per cent inhibition relative to cycloheximide control; conditions: 72 h, relative to cycloheximide control, log10 luminescence; inhibitor
M07e [14] = test system: M07e; design: species or system AML cell lines (8); Primary HTS, single concentration about 10 uM, Cell Titer Glo viability; log10 luminescence, per cent inhibition relative to cycloheximide control; conditions: 72 h, relative to cycloheximide control, log10 luminescence; inhibitor
ML-2 = test system: ML-2; design: species or system AML cell lines (8); Primary HTS, single concentration about 10 uM, Cell Titer Glo viability; log10 luminescence, per cent inhibition relative to cycloheximide control; conditions: 72 h, relative to cycloheximide control, log10 luminescence; inhibitor
MOLM-13 [15] = test system: MOLM-13; design: species or system AML cell lines (8); Primary HTS, single concentration about 10 uM, Cell Titer Glo viability; log10 luminescence, per cent inhibition relative to cycloheximide control; conditions: 72 h, relative to cycloheximide control, log10 luminescence; inhibitor
MV4-11 [16] = test system: MV4-11; design: species or system AML cell lines (8); Primary HTS, single concentration about 10 uM, Cell Titer Glo viability; log10 luminescence, per cent inhibition relative to cycloheximide control; conditions: 72 h, relative to cycloheximide control, log10 luminescence; inhibitor
U937 [17] = test system: U937; design: species or system AML cell lines (8); Primary HTS, single concentration about 10 uM, Cell Titer Glo viability; log10 luminescence, per cent inhibition relative to cycloheximide control; conditions: 72 h, relative to cycloheximide control, log10 luminescence; inhibitor
MOLM-13 [18] = assay: Secondary dose-response HTS, Cell Titer Glo; type: cell-based, human; conditions: Homo sapiens; secondary high-throughput screen; MOLM-13; read-out: average effective concentration, MOLM-13
MV4-11 [19] = assay: Secondary dose-response HTS, Cell Titer Glo; type: cell-based, human; conditions: Homo sapiens; secondary high-throughput screen; MV4-11; read-out: average effective concentration, MV4-11
[20] = secondary high-throughput screen
[21] = secondary high-throughput screen, CMS

Row | EC50 (U937 [4]) | EC50 (MOLM-13 [5]) | EC50 (MV4-11 [6]) | SMILES | EC50 (CHRF288-11 [1]) | EC50 (CMS [2]) | EC50 (M07e [3]; M07e) | EC50 (ML2) | EC50 (CMK [7]) | EC50 (CMK [8]; [20]) | EC50 (CMS [2]; [21]) | other results
1 | 1700 nM | > 10000 nM | > 10000 nM | C=C1CC[C@@H]2[C@](C)(CO)[C@H](O)CC[C@@]2(C)[C@@H]1C/C=C1/C(=O)OC[C@H]1O [ANDROGRAPHOLIDE] | 8500 nM | 5800 nM | 10000 nM | 3800 nM | > 10000 nM |  |  | 
2 | 6100 nM | > 10000 nM | > 10000 nM | O=C(Nc1c[nH]nc1-c1nc2ccc(CN3CCOCC3)cc2[nH]1)NC1CC1 [AT9283] |  |  | 90 nM | 6600 nM |  | 190 nM | 190 nM | EC50 (CHRF288-11 [9]): > 10000 nM
3 |  | > 10000 nM | > 10000 nM | Nc1cc(F)ccc1NC(=O)c1ccc(CNC(=O)/C=C/c2cccnc2)cc1 [CHIDAMIDE] |  | 9900 nM | 1500 nM | 8700 nM |  |  |  | EC50 (CMK [8]): 250 nM; EC50 (CHRF288-11 [9]): > 10000 nM; EC50 (U937 [10]): > 10000 nM
4 | 1 nM | > 10000 nM | > 10000 nM | O=C(/C=C/c1ccc(CN(CCO)CCc2c[nH]c3ccccc23)cc1)NO [DACINOSTAT] | 1 nM |  | 1 nM | 1 nM |  | 1 nM | 1 nM | CHRF288-11 %inh (CHRF288-11 [11]): 161.9%; CMK %inh (CMK [12]): 120.3%; CMS %inh (CMS [13]): 111%; M07e %inh (M07e [14]): 149.6%; ML-2 %inh (ML-2): 65.79%; MOLM-13 %inh (MOLM-13 [15]): 102.9%; MV4-11 %inh (MV4-11 [16]): 78.77%; U937 %inh (U937 [17]): 87.23%
5 | 2.8 nM | 2.1 nM | > 10000 nM | CC(C)C[C@H](NC(=O)[C@@H](NC(=O)c1cccc(-c2ccccc2)n1)[C@@H](C)O)B(O)O [DELANZOMIB] | 2.7 nM |  | 1 nM | 1 nM |  | 1.5 nM | 1 nM | 
6 | 140 nM |  |  | COc1cccc2c1C(=O)c1c(O)c3c(c(O)c1C2=O)C[C@@](O)(C(=O)CO)C[C@@H]3O[C@H]1C[C@H](N)[C@H](O)[C@H](C)O1 [DOXORUBICIN] | 130 nM |  | 230 nM | 440 nM | > 10000 nM |  | 740 nM | EC50 (MOLM-13 [18]): 36 nM; EC50 (MV4-11 [19]): 51 nM; EC50 (CHRF288-11 [9]): 134 nM
7 | 5600 nM | > 10000 nM | > 10000 nM | Nc1ccccc1NC(=O)c1ccc(CNC(=O)OCc2cccnc2)cc1 [ENTINOSTAT] | 4100 nM |  | 1000 nM | 6200 nM |  | 110 nM | 760 nM | 
8 | 4300 nM |  |  | COc1cc([C@@H]2c3cc4c(cc3[C@@H](O[C@@H]3O[C@@H]5CO[C@@H](C)O[C@H]5[C@H](O)[C@H]3O)[C@H]3COC(=O)[C@H]23)OCO4)cc(OC)c1O [ETOPOSIDE] | 3600 nM |  | 1700 nM | 710 nM | > 10000 nM |  | > 10000 nM | EC50 (MOLM-13 [18]): 2100 nM; EC50 (MV4-11 [19]): 670 nM
9 | 940 nM | > 10000 nM | > 10000 nM | Cc1cc(Nc2cc(CN3CCOCC3)c3nc(C)c(Cc4ccc(Cl)cc4F)n3n2)n[nH]1 [GANDOTINIB] | 69 nM | 360 nM | 3000 nM | 9300 nM | > 10000 nM |  |  | 
10 | 55 nM | > 10000 nM | > 10000 nM | CCN(CC)Cc1ccc2cc(COC(=O)Nc3ccc(C(=O)NO)cc3)ccc2c1 [GIVINOSTAT] | 61 nM |  | 31 nM | 70 nM |  | 3.7 nM | 86 nM | 
11 | 1 nM | > 10000 nM | > 10000 nM | NS(=O)(=O)OC[C@@H]1C[C@@H](n2ccc3c(N[C@H]4CCc5ccccc54)ncnc32)C[C@@H]1O [MLN 4924] | 18 nM | 100 nM | 140 nM | 1 nM |  |  |  | EC50 (CMK [8]): 1 nM
12 | 1100 nM | > 10000 nM | > 10000 nM | Nc1ccccc1NC(=O)c1ccc(CNc2nccc(-c3cccnc3)n2)cc1 [MOCETINOSTAT] | 170 nM |  | 140 nM | 410 nM |  | 39 nM | 120 nM | 
13 | 2100 nM | > 10000 nM | > 10000 nM | C=C1C(=O)O[C@H]2[C@H]1CC/C(C)=C/CC[C@@]1(C)O[C@@H]21 [PARTHENOLIDE] | 1600 nM | 1200 nM | 10000 nM | 920 nM |  |  |  | EC50 (CMK [8]): 2100 nM
14 | 220 nM | > 10000 nM | > 10000 nM | CCCCc1nc2cc(/C=C/C(=O)NO)ccc2n1CCN(CC)CC [PRACINOSTAT] | 250 nM | 140 nM | 130 nM | 330 nM |  |  |  | EC50 (CMK [8]): 70 nM
15 | 10000 nM |  |  | CN1CCC(CNc2ccc3ncc(-c4cccc(OC(F)(F)F)c4)n3n2)CC1 [SGI-1776] | > 10000 nM | > 10000 nM | > 10000 nM | > 10000 nM | > 10000 nM |  |  | EC50 (MOLM-13 [18]): 1600 nM; EC50 (MV4-11 [19]): 990 nM
16 | > 10000 nM | > 10000 nM | > 10000 nM | COc1cc(C)c2c(Oc3cccc(C(F)(F)F)c3)c(OC)cc(NC(C)CCCN)c2n1 (stereo not shown) [TAFENOQUINE] | > 10000 nM | > 10000 nM | > 10000 nM | > 10000 nM | > 10000 nM |  |  | CHRF288-11 %inh (CHRF288-11 [11]): 134.8%; CMK %inh (CMK [12]): 107.9%; CMS %inh (CMS [13]): 39.64%; M07e %inh (M07e [14]): 38.9%; ML-2 %inh (ML-2): 62.38%; MOLM-13 %inh (MOLM-13 [15]): 98.6%; MV4-11 %inh (MV4-11 [16]): 34.4%; U937 %inh (U937 [17]): 46.41%
17 | 61 nM | > 10000 nM | > 10000 nM | O=C1NC(=O)[C@@H](c2cn3c4c(cccc24)CCC3)[C@@H]1c1c[nH]c2ccccc12 [TIVANTINIB] | 3600 nM |  | 770 nM | 55 nM |  | 75 nM | 1500 nM | 

Row | SMILES | EC50 (U937 [4]) | EC50 (MOLM-13 [5]) | EC50 (MV4-11 [6]) | EC50 (CHRF288-11 [1]) | EC50 (CMS [2]) | EC50 (M07e [3]; M07e) | EC50 (ML2) | EC50 (CMK [7]) | EC50 (CMK [8]; [20]) | EC50 (CMS [2]; [21]) | other results
18 | CCOc1ccccc1-n1c(C(C)N2CCN(C(=O)COc3ccc(Cl)cc3)CC2)nc2ccccc2c1=O (stereo not shown) [ERASTIN] |  | > 10000 nM | > 10000 nM | 190 nM |  | 7500 nM | 540 nM | > 10000 nM |  | 9500 nM | EC50 (U937 [10]): > 10000 nM
19 | Oc1ccc(C2=Cc3ccc(O)cc3OC2)cc1 [IDRONOXIL] | 1900 nM | > 10000 nM | > 10000 nM | 180 nM |  |  | 130 nM |  | 88 nM | 440 nM | EC50 (M07e [3]; […]): 1300 nM
